In PMC11434480, “Discovery and Optimization of Ergosterol Peroxide Derivatives as Novel Glutaminase 1 Inhibitors for the Treatment of Triple-Negative Breast Cancer” (Molecules, 2024):

Assays:
Type in all cases: cell-based, human
A549 = experiment: MTT antiproliferative assay, A549; details: mean of three experiments ± SD
Method: (§1) The in vitro antiproliferative activity of the novel EP derivatives (1a–h, 2a–h, 3a–h, and 4a–h) was evaluated on four different human cancer cell lines (A549, HepG2, MCF-7, and MDA-MB-231) using an MTT assay.
(§2) Cells containing 10% fetal bovine serum (FBS; WISENT, Nanjing, China) were cultured in an L-15 culture medium (L-15, BOSTER, Wuhan, China) in an incubator at 37 °C. The cells were then inoculated into 96-well plates at a density of 5 × 10^3/well, cultured in 100 μL L-15 medium for 24 h, and incubated with the compound to be tested for 48 h. Next, 20 μL of MTT (5 mg/mL) solution was added and incubated at 37 °C for 4 h away from light. A resorption culture medium was then supplemented with 150 μL DMSO per well. The absorbance was measured at 570 nm using an enzymometer (SAFIRE2, Tecan, Swiss Confederation, Männedorf, Switzerland). The cytotoxic activity was presented in terms of half the inhibition rate.

HepG2 = experiment: MTT antiproliferative assay, HepG2; details: mean of three experiments ± SD
Method: as §1, §2

MCF-7 = experiment: MTT antiproliferative assay, MCF-7; details: mean of three experiments ± SD
Method: as §1, §2

MDA-MB-231 = experiment: MTT antiproliferative assay, MDA-MB-231; details: MTT, 48 h, mean of three experiments ± SD
Method: as §1, §2

SMILES: CC(C)C(C)C=CC(C)C1CCC2C1(C)CCC1C23C=CC2(CC(OC(=O)CCCC(=O)Nc4nncs4)CCC12C)OO3 (stereo not drawn) [Compound 3a, Ergosterol peroxide-3-(5-((1,3,4-thiadiazol-2-yl)amino)-5-oxopentanoate)]
- IC50 (A549; Homo sapiens, A549, 48 h): 9.73 ± 0.42 µM
- IC50 (HepG2; Homo sapiens, HepG2, 48 h): 10.7 ± 0.82 µM
- IC50 (MCF-7; Homo sapiens, MCF7, 48 h): 5.16 ± 0.93 µM
- IC50 (MDA-MB-231; Homo sapiens, MDA-MB-231): 7.06 ± 0.35 µM

SMILES: CC(C)C(C)C=CC(C)C1CCC2C1(C)CCC1C23C=CC2(CC(OC(=O)CCCC(=O)Nc4nccs4)CCC12C)OO3 (stereo not drawn) [Compound 3b, Ergosterol peroxide-3-(5-oxo-5-(thiazol-2-ylamino)pentanoate)]
- IC50 (A549; Homo sapiens, A549, 48 h): 11.7 ± 0.82 µM
- IC50 (HepG2; Homo sapiens, HepG2, 48 h): 13.1 ± 1.22 µM
- IC50 (MCF-7; Homo sapiens, MCF7, 48 h): 9.47 ± 0.75 µM
- IC50 (MDA-MB-231; Homo sapiens, MDA-MB-231): 6.92 ± 0.28 µM

SMILES: CC(C)C(C)C=CC(C)C1CCC2C1(C)CCC1C23C=CC2(CC(OC(=O)c4ccccc4C(=O)Nc4nc5ccc(F)cc5s4)CCC12C)OO3 (stereo not drawn) [Compound 4d, Ergosterol peroxide-3-(2-((6-fluorobenzo[d]thiazol-2-yl)carbamoyl)benzoate)]
- IC50 (A549; Homo sapiens, A549, 48 h): 8.99 ± 0.81 µM
- IC50 (HepG2; Homo sapiens, HepG2, 48 h): 15.3 ± 1.31 µM
- IC50 (MCF-7; Homo sapiens, MCF7, 48 h): 10.6 ± 0.52 µM
- IC50 (MDA-MB-231; Homo sapiens, MDA-MB-231): 11.3 ± 0.44 µM

SMILES: CC(C)C(C)C=CC(C)C1CCC2C1(C)CCC1C23C=CC2(CC(OC(=O)CCCC(=O)Nc4ccccc4)CCC12C)OO3 (stereo not drawn) [Compound 3e, Ergosterol peroxide-3-(5-oxo-5-(phenylamino)pentanoate)]
- IC50 (A549; Homo sapiens, A549, 48 h): 10.5 ± 0.79 µM
- IC50 (HepG2; Homo sapiens, HepG2, 48 h): 14.9 ± 1.13 µM
- IC50 (MCF-7; Homo sapiens, MCF7, 48 h): 11.6 ± 0.66 µM
- IC50 (MDA-MB-231; Homo sapiens, MDA-MB-231): 4.78 ± 0.41 µM

SMILES: CC(C)C(C)C=CC(C)C1CCC2C1(C)CCC1C23C=CC2(CC(OC(=O)c4ccccc4C(=O)Nc4nncs4)CCC12C)OO3 (stereo not drawn) [Compound 4a, Ergosterol peroxide-3-(2-((1,3,4-thiadiazol-2-yl)carbamoyl)benzoate)]
- IC50 (A549; Homo sapiens, A549, 48 h): 7.07 ± 0.47 µM
- IC50 (HepG2; Homo sapiens, HepG2, 48 h): 8.08 ± 0.64 µM
- IC50 (MCF-7; Homo sapiens, MCF7, 48 h): 8.2 ± 0.68 µM
- IC50 (MDA-MB-231; Homo sapiens, MDA-MB-231): 10.2 ± 0.62 µM

SMILES: CC(C)C(C)C=CC(C)C1CCC2C1(C)CCC1C23C=CC2(CC(OC(=O)c4ccccc4C(=O)Nc4nc5cc(F)ccc5s4)CCC12C)OO3 (stereo not drawn) [Compound 4c, Ergosterol peroxide-3-(2-((5-fluorobenzo[d]thiazol-2-yl)carbamoyl)benzoate)]
- IC50 (A549; Homo sapiens, A549, 48 h): 11.7 ± 1.02 µM
- IC50 (HepG2; Homo sapiens, HepG2, 48 h): 11.4 ± 0.98 µM
- IC50 (MCF-7; Homo sapiens, MCF7, 48 h): 10.7 ± 0.47 µM
- IC50 (MDA-MB-231; Homo sapiens, MDA-MB-231): 7.32 ± 0.58 µM

SMILES: N.N.[Cl][Pt][Cl] [Cisplatin, reference compound]
- IC50 (A549; 48 h): 11.6 ± 0.38 µM
- IC50 (HepG2; 48 h): 6.29 ± 0.3 µM
- IC50 (MCF-7; 48 h): 4.23 ± 0.24 µM
- IC50 (MDA-MB-231): 10.4 ± 0.34 µM

SMILES: CC(C)C(C)C=CC(C)C1CCC2C1(C)CCC1C23C=CC2(CC(OC(=O)CCCC(=O)Nc4ccc(F)cc4)CCC12C)OO3 (stereo not drawn) [Compound 3f, Ergosterol peroxide-3-(5-((4-fluorophenyl)amino)-5-oxopentanoate)]
- IC50 (A549; Homo sapiens, A549, 48 h): 11.1 ± 0.93 µM
- IC50 (HepG2; Homo sapiens, HepG2, 48 h): 9.79 ± 1.01 µM
- IC50 (MCF-7; Homo sapiens, MCF7, 48 h): 8.09 ± 0.71 µM
- IC50 (MDA-MB-231; Homo sapiens, MDA-MB-231): 7.19 ± 0.39 µM

SMILES: CC(C)C(C)C=CC(C)C1CCC2C1(C)CCC1C23C=CC2(CC(OC(=O)c4ccccc4C(=O)Nc4ccc5ccccc5c4)CCC12C)OO3 (stereo not drawn) [Compound 4h, Ergosterol peroxide-3-(2-(naphthalen-2-ylcarbamoyl)benzoate)]
- IC50 (A549; Homo sapiens, A549, 48 h): 10.1 ± 1.16 µM
- IC50 (HepG2; Homo sapiens, HepG2, 48 h): 14.3 ± 1.55 µM
- IC50 (MCF-7; Homo sapiens, MCF7, 48 h): 11.4 ± 0.42 µM
- IC50 (MDA-MB-231; Homo sapiens, MDA-MB-231): 14.6 ± 0.47 µM

SMILES: CC(C)C(C)C=CC(C)C1CCC2C1(C)CCC1C23C=CC2(CC(OC(=O)c4ccccc4C(=O)Nc4nccs4)CCC12C)OO3 (stereo not drawn) [Compound 4b, Ergosterol peroxide-3-(2-oxo-5-((thiazol-2-yl)carbamoyl)benzoate)]
- IC50 (A549; Homo sapiens, A549, 48 h): 12.8 ± 1.08 µM
- IC50 (HepG2; Homo sapiens, HepG2, 48 h): 11 ± 0.76 µM
- IC50 (MCF-7; Homo sapiens, MCF7, 48 h): 12.6 ± 0.94 µM
- IC50 (MDA-MB-231; Homo sapiens, MDA-MB-231): 15.8 ± 1.26 µM

SMILES: CC(C)C(C)C=CC(C)C1CCC2C1(C)CCC1C23C=CC2(CC(OC(=O)c4ccccc4C(=O)Nc4ccc(F)cc4)CCC12C)OO3 (stereo not drawn) [Compound 4f, Ergosterol peroxide-3-(2-((4-fluorophenyl)carbamoyl)benzoate)]
- IC50 (A549; Homo sapiens, A549, 48 h): 18.8 ± 0.64 µM
- IC50 (HepG2; Homo sapiens, HepG2, 48 h): 9.02 ± 0.87 µM
- IC50 (MCF-7; Homo sapiens, MCF7, 48 h): 9.64 ± 0.51 µM
- IC50 (MDA-MB-231; Homo sapiens, MDA-MB-231): 13.4 ± 1.24 µM

SMILES: CC(C)C(C)C=CC(C)C1CCC2C1(C)CCC1C23C=CC2(CC(OC(=O)CCCC(=O)Nc4nc5cc(F)ccc5s4)CCC12C)OO3 (stereo not drawn) [Compound 3c, Ergosterol peroxide-3-(5-((5-fluorobenzo[d]thiazol-2-yl)amino)-5-oxopentanoate)]
- IC50 (A549; Homo sapiens, A549, 48 h): 11.4 ± 0.79 µM
- IC50 (HepG2; Homo sapiens, HepG2, 48 h): 11.9 ± 1.07 µM
- IC50 (MCF-7; Homo sapiens, MCF7, 48 h): 11 ± 0.62 µM
- IC50 (MDA-MB-231; Homo sapiens, MDA-MB-231): 12 ± 0.72 µM
